Assay results reported in patent publication US10219513B2, “Safening 4-amino-3-chloro-6-(4-chloro-2-fluoro-3-methoxyphenyl)-5-fluoropyridine-2-carboxylic acid compositions in Brassica species and methods of use thereof” (Dow AgroSciences LLC, priority 2016, dated 2019).
“And” between values parts separate entries of the source, which are not always exact repeats. Equal entries are not always repeated.

Assays:
[1] = tested on: Brassica napus var. napobrassica (rutabaga, BRSNA); assay: Greenhouse postemergence application, visual injury after 20-22 d, BRSNA
Procedure: (§1) Seeds of the desired test plant species were planted in Sun Gro MetroMix® 306 planting mixture, which typically has a pH of 6.0 to 6.8 and an organic matter content of about 30 percent, in plastic pots with a surface area of 103.2 square centimeters (cm^2). […] The plants were grown for 7-36 days (d) in a greenhouse with an approximate 14-hour (h) photoperiod which was maintained at about 23° C. during the day and 22° C. during the night. Nutrients and water were added on a regular basis and supplemental lighting was provided with overhead metal halide 1000-Watt lamps as necessary. The plants were employed for testing when they reached the second or third true leaf stage.
(§2) An aliquot of formulated benzyl 4-amino-3-chloro-6-(4-chloro-2-fluoro-3-methoxyphenyl)-5-fluoropyridine-2-carboxylate (florpyrauxifen-benzyl; 300 grams active ingredient per liter (g ai/L) suspension concentrate (SC)) was placed in a 25 mL glass vial and diluted in a volume of 1.25% (v/v) aqueous Agri-dex crop oil concentrated to obtain a stock solution. […] The concentrated stock solutions were diluted with an aqueous mixture of 1.25% v/v of aqueous Agri-dex crop oil concentrate to provide the appropriate application rates. Compound requirements are based upon a 12 milliliter (mL) application volume at a rate of 187 liters per hectare (L/ha). Stock solutions of the formulated materials were prepared following the same procedure. Spray solutions of the compound mixtures were prepared by adding the stock solutions to the appropriate amount of dilution solution to form a 12 mL spray solution. Formulated compounds were applied to the plant material with an overhead Mandel track sprayer equipped with 8002E nozzles calibrated to deliver 187 L/ha over an application area of 0.503 square meters (m^2) at a spray height of 18 inches (43 centimeters (cm)) above average plant canopy. Control plants were sprayed in the same manner with the solvent blank.
(§3) The treated plants and control plants were placed in a greenhouse as described above and watered by sub-irrigation to prevent wash-off of the test compounds. After 20-22 d, the condition of the test plants as compared with that of the control plants was determined visually and scored on a scale of 0 to 100 percent where 0 corresponds to no injury and 100 corresponds to complete kill. Colby's equation was used to determine the herbicidal effects expected from the mixtures.
(§4) Benzyl 4-amino-3-chloro-6-(4-chloro-2-fluoro-3-methoxyphenyl)-5-fluoropyridine-2-carboxylate (florpyrauxifen-benzyl, 300 g ai/L SC) was combined in two-, three-, and four-way mixtures with one or more of the following: clopyralid-olamine (as Lontrel™ 35A Herbicidal Concentrate), quinclorac (as Facet 75DF), isoxadifen-ethyl (100 g/L SC), cloquintocet-mexyl (120 g/L EC) or mefenpyr-diethyl (as mefenpyr-diethyl 15WP). The mixtures were applied to kale/Chinese kale (Brassica alboglabra, BRSAG), Juncea canola or brown mustard (Brassica juncea, BRSJU), rutabaga (Brassica napus var. napobrassica, BRSNA), all varieties of canola and oilseed rape (Brassica napus, BRSNN), Nexera™ canola (Brassica napus, BRSNN-NEX), winter oilseed rape (Brassica napus, BRSNW), Roundup Ready® canola (Brassica napus, RR-BRSNN), and turnip or Polish canola (Brassica rapa, BRSRR), and the phytotoxicity of the compositions was measured.
(§5) Colby's equation was used to determine the herbicidal effects expected from the mixtures evaluated in the described trials (Colby, S. R. Calculation of the synergistic and antagonistic response of herbicide combinations. Weeds 1967, 15, 20-22.).
(§6) The following equation was used to calculate the expected activity of mixtures containing two active ingredients, A and B: Expected=A+B−(A×B/100) • A=observed efficacy of active ingredient A at the same concentration as used in the mixture; • B=observed efficacy of active ingredient B at the same concentration as used in the mixture.

[2] = tested on: Brassica napus (Nexera canola, BRSNN-NEX); assay: Greenhouse postemergence application, visual injury after 20-22 d, BRSNN-NEX
Procedure: as §1, §2, §3, §4, §5, §6

[3] = tested on: Brassica rapa (turnip or Polish canola, BRSRR); assay: Greenhouse postemergence application, visual injury after 20-22 d, BRSRR
Procedure: as §1, §2, §3, §4, §5, §6

[4] = florpyrauxifen-benzyl 2.5 g ai/ha alone
[5] = florpyrauxifen-benzyl 5 g ai/ha alone
[6] = florpyrauxifen-benzyl 10 g ai/ha alone
[7] = florpyrauxifen-benzyl alone 2.5 g ai/ha
[8] = florpyrauxifen-benzyl alone 5 g ai/ha
[9] = florpyrauxifen-benzyl alone 10 g ai/ha
[10] = postemergence application, greenhouse, application rate (g ai/ha) varies
[11] = isoxadifen-ethyl 5 g ai/ha alone
[12] = isoxadifen-ethyl 10 g ai/ha alone
[13] = isoxadifen-ethyl 20 g ai/ha alone
[14] = isoxadifen-ethyl 40 g ai/ha alone

COc1c(Cl)ccc(-c2nc(C(=O)OCc3ccccc3)c(Cl)c(N)c2F)c1F [Florpyrauxifen-benzyl, benzyl 4-amino-3-chloro-6-(4-chloro-2-fluoro-3-methoxyphenyl)-5-fluoropyridine-2-carboxylate]
% Visual Injury Obs ([1]; BRSNA, 2.5 g ai/ha): 4% | % Visual Injury Obs ([1]; BRSNA, 5 g ai/ha): 4% | % Visual Injury Obs ([1]; BRSNA, 10 g ai/ha): 13% | Obs % visual injury ([1]; BRSNA, florpyrauxifen-benzyl alone 2.5 g ai/ha): 4% | Obs % visual injury ([1]; BRSNA, florpyrauxifen-benzyl alone 5 g ai/ha): 4% | Obs % visual injury ([1]; BRSNA, florpyrauxifen-benzyl alone 10 g ai/ha): 13% | % Visual Injury BRSNA Obs [1, 4]: 4% | % Visual Injury Obs [1, 4]: 4% | % Visual Injury BRSNA Obs [1, 5]: 4% | % Visual Injury Obs [1, 5]: 4% | % Visual Injury BRSNA Obs [1, 6]: 13% | % Visual Injury Obs [1, 6]: 13% | Obs % visual injury BRSNA [1, 7]: 4% | Obs % visual injury BRSNA [1, 8]: 4% | Obs % visual injury BRSNA [1, 9]: 13% | % Visual Injury BRSNA Obs [1, 10]: 4% and 13% | % Visual Injury Obs ([2]; BRSNN-NEX, 2.5 g ai/ha): 7% | % Visual Injury Obs ([2]; BRSNN-NEX, 5 g ai/ha): 12% | % Visual Injury Obs ([2]; BRSNN-NEX, 10 g ai/ha): 19% | Obs % visual injury ([2]; BRSNN-NEX, florpyrauxifen-benzyl alone 2.5 g ai/ha): 7% | Obs % visual injury ([2]; BRSNN-NEX, florpyrauxifen-benzyl alone 5 g ai/ha): 12% | Obs % visual injury ([2]; BRSNN-NEX, florpyrauxifen-benzyl alone 10 g ai/ha): 19% | % Visual Injury BRSNN-NEX Obs [2, 4]: 7% | % Visual Injury Obs [2, 4]: 7% | % Visual Injury BRSNN-NEX Obs [2, 5]: 12% | % Visual Injury Obs [2, 5]: 12% | % Visual Injury BRSNN-NEX Obs [2, 6]: 19% | % Visual Injury Obs [2, 6]: 19% | Obs % visual injury BRSNN-NEX [2, 7]: 7% | Obs % visual injury BRSNN-NEX [2, 8]: 12% | Obs % visual injury BRSNN-NEX [2, 9]: 19% | % Visual Injury Obs ([3]; BRSRR, 2.5 g ai/ha): 6% | % Visual Injury Obs ([3]; BRSRR, 5 g ai/ha): 9% | % Visual Injury Obs ([3]; BRSRR, 10 g ai/ha): 14% | Obs % visual injury ([3]; BRSRR, florpyrauxifen-benzyl alone 2.5 g ai/ha): 6% | Obs % visual injury ([3]; BRSRR, florpyrauxifen-benzyl alone 5 g ai/ha): 9% | Obs % visual injury ([3]; BRSRR, florpyrauxifen-benzyl alone 10 g ai/ha): 14% | % Visual Injury BRSRR Obs [3, 4]: 6% | % Visual Injury Obs [3, 4]: 6% | % Visual Injury BRSRR Obs [3, 5]: 9% | % Visual Injury Obs [3, 5]: 9% | % Visual Injury BRSRR Obs [3, 6]: 14% | % Visual Injury Obs [3, 6]: 14% | Obs % visual injury BRSRR [3, 7]: 6% | Obs % visual injury BRSRR [3, 8]: 9% | Obs % visual injury BRSRR [3, 9]: 14% | % Visual Injury BRSRR Obs [3, 10]: 6% and 9% and 14%

CCOC(=O)C1=NOC(c2ccccc2)(c2ccccc2)C1 [Isoxadifen-ethyl, ethyl 4,5-dihydro-5,5-diphenyl-1,2-oxazole-3-carboxyalte]
% Visual Injury Obs ([1]; BRSNA, 5 g ai/ha): 0% | % Visual Injury Obs ([1]; BRSNA, 10 g ai/ha): 0% | % Visual Injury Obs ([1]; BRSNA, 20 g ai/ha): 0% | % Visual Injury Obs ([1]; BRSNA, 40 g ai/ha): 0% | Obs % visual injury ([1]; BRSNA, partner alone 5 g ai/ha): 0% | Obs % visual injury ([1]; BRSNA, partner alone 10 g ai/ha): 0% | Obs % visual injury ([1]; BRSNA, partner alone 20 g ai/ha): 0% | Obs % visual injury ([1]; BRSNA, partner alone 40 g ai/ha): 0% | % Visual Injury Obs [1, 11]: 0% | % Visual Injury Obs [1, 12]: 0% | % Visual Injury Obs [1, 13]: 0% | % Visual Injury Obs [1, 14]: 0% | % Visual Injury BRSNA Obs [1, 10]: 0% | % Visual Injury Obs ([2]; BRSNN-NEX, 5 g ai/ha): 0% | % Visual Injury Obs ([2]; BRSNN-NEX, 10 g ai/ha): 0% | % Visual Injury Obs ([2]; BRSNN-NEX, 20 g ai/ha): 0% | % Visual Injury Obs ([2]; BRSNN-NEX, 40 g ai/ha): 0% | Obs % visual injury ([2]; BRSNN-NEX, partner alone 5 g ai/ha): 0% | Obs % visual injury ([2]; BRSNN-NEX, partner alone 10 g ai/ha): 0% | Obs % visual injury ([2]; BRSNN-NEX, partner alone 20 g ai/ha): 0% | Obs % visual injury ([2]; BRSNN-NEX, partner alone 40 g ai/ha): 0% | % Visual Injury Obs [2, 11]: 0% | % Visual Injury Obs [2, 12]: 0% | % Visual Injury Obs [2, 13]: 0% | % Visual Injury Obs [2, 14]: 0% | % Visual Injury BRSNN-NEX Obs [2, 10]: 0% | % Visual Injury Obs ([3]; BRSRR, 5 g ai/ha): 0% | % Visual Injury Obs ([3]; BRSRR, 10 g ai/ha): 0% | % Visual Injury Obs ([3]; BRSRR, 20 g ai/ha): 0% | % Visual Injury Obs ([3]; BRSRR, 40 g ai/ha): 0% | Obs % visual injury ([3]; BRSRR, partner alone 5 g ai/ha): 0% | Obs % visual injury ([3]; BRSRR, partner alone 10 g ai/ha): 0% | Obs % visual injury ([3]; BRSRR, partner alone 20 g ai/ha): 0% | Obs % visual injury ([3]; BRSRR, partner alone 40 g ai/ha): 0% | % Visual Injury Obs [3, 11]: 0% | % Visual Injury Obs [3, 12]: 0% | % Visual Injury Obs [3, 13]: 0% | % Visual Injury Obs [3, 14]: 0% | % Visual Injury BRSRR Obs [3, 10]: 0%

O=C(O)c1c(Cl)ccc2cc(Cl)cnc12 [Quinclorac, 3,7-dichloro-8-quinolinecarboxylic acid]
% Visual Injury Obs ([1]; BRSNA, 50 g ai/ha): 0% | % Visual Injury Obs ([1]; BRSNA, 100 g ai/ha): 0% | % Visual Injury Obs ([1]; BRSNA, 200 g ai/ha): 0% | Obs % visual injury ([1]; BRSNA, partner alone 50 g ai/ha): 0% | Obs % visual injury ([1]; BRSNA, partner alone 100 g ai/ha): 0% | Obs % visual injury ([1]; BRSNA, partner alone 200 g ai/ha): 0% | % Visual Injury BRSNA Obs [1, 10]: 0% | % Visual Injury BRSNA Obs ([1]; quinclorac 50 g ai/ha alone): 0% | % Visual Injury BRSNA Obs ([1]; quinclorac 100 g ai/ha alone): 0% | % Visual Injury BRSNA Obs ([1]; quinclorac 200 g ai/ha alone): 0% | % Visual Injury Obs ([2]; BRSNN-NEX, 50 g ai/ha): 0% | % Visual Injury Obs ([2]; BRSNN-NEX, 100 g ai/ha): 0% | % Visual Injury Obs ([2]; BRSNN-NEX, 200 g ai/ha): 0% | Obs % visual injury ([2]; BRSNN-NEX, partner alone 50 g ai/ha): 0% | Obs % visual injury ([2]; BRSNN-NEX, partner alone 100 g ai/ha): 0% | Obs % visual injury ([2]; BRSNN-NEX, partner alone 200 g ai/ha): 0% | % Visual Injury BRSNN-NEX Obs [2, 10]: 0% | % Visual Injury BRSNN-NEX Obs ([2]; quinclorac 50 g ai/ha alone): 0% | % Visual Injury BRSNN-NEX Obs ([2]; quinclorac 100 g ai/ha alone): 0% | % Visual Injury BRSNN-NEX Obs ([2]; quinclorac 200 g ai/ha alone): 0% | % Visual Injury Obs ([3]; BRSRR, 50 g ai/ha): 0% | % Visual Injury Obs ([3]; BRSRR, 100 g ai/ha): 0% | % Visual Injury Obs ([3]; BRSRR, 200 g ai/ha): 0% | Obs % visual injury ([3]; BRSRR, partner alone 50 g ai/ha): 0% | Obs % visual injury ([3]; BRSRR, partner alone 100 g ai/ha): 0% | Obs % visual injury ([3]; BRSRR, partner alone 200 g ai/ha): 0% | % Visual Injury BRSRR Obs [3, 10]: 0% | % Visual Injury BRSRR Obs ([3]; quinclorac 50 g ai/ha alone): 0% | % Visual Injury BRSRR Obs ([3]; quinclorac 100 g ai/ha alone): 0% | % Visual Injury BRSRR Obs ([3]; quinclorac 200 g ai/ha alone): 0%
